Test results: ChEMBL document CHEMBL5131447, “Discovery of orexin 2 receptor selective and dual orexin receptor agonists based on the tetralin structure: Switching of receptor selectivity by chirality on the tetralin ring” (Bioorg Med Chem Lett, 2022)

Experiments:
[1] = species on record: Homo sapiens; test: Selectivity index, ratio of EC50 for agonist activity at OX1R (unknown origin) to EC50 for agonist activity at OX2R (unknown origin)
[2] = molecular target: T1, Orexin receptor type 2 (Homo sapiens, UniProt O43614); test: Agonist activity at OX2R (unknown origin); assay type: functional
T1 sequence (O43614 whole entry): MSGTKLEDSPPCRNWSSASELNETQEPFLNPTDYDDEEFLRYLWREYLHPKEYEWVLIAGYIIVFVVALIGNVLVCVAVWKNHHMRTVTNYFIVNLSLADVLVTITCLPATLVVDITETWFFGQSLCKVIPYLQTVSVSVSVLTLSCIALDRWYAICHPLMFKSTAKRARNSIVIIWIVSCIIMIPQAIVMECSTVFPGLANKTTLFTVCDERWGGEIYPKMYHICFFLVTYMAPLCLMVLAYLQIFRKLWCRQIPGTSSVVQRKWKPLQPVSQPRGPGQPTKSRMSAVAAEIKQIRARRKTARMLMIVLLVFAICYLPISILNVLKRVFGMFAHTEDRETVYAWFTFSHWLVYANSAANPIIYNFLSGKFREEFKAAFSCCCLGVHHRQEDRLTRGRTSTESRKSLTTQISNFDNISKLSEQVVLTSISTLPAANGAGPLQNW

[3] = molecular target: T2, Orexin/Hypocretin receptor type 1 (Homo sapiens, UniProt O43613); test: Agonist activity at OX1R (unknown origin); assay type: functional
T2 sequence (O43613 whole entry): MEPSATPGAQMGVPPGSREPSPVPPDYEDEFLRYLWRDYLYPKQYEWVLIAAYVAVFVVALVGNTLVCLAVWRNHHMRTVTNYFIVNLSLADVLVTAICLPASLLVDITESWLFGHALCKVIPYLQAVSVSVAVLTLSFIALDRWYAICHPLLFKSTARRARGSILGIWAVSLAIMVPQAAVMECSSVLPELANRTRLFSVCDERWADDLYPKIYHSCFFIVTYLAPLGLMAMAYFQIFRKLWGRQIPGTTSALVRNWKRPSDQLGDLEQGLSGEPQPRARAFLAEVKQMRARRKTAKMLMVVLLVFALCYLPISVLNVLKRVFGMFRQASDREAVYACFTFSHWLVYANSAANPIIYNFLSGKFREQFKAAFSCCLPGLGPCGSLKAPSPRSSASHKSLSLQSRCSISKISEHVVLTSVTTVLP

[4] = molecular target: T3, Orexin/Hypocretin receptor type 1 (Homo sapiens) (UniProt O43613); test: Agonist activity at OX1R (unknown origin) assessed as maximum efficacy at 10 uM relative to control; assay type: functional
T3 sequence (whole entry): T2 sequence (O43613 whole entry)

[5] = molecular target: T4, Orexin receptor type 2 (Homo sapiens) (UniProt O43614); test: Agonist activity at OX2R (unknown origin) assessed as maximum efficacy at 10 uM relative to control; assay type: functional
T4 sequence (whole entry): T1 sequence (O43614 whole entry)

Row | Compound | Ratio EC50 [1] | EC50 [2] | EC50 [3] | Emax ([4]; filed as agonist) | Emax [4] | Emax [5]
1 | H-MTLIGAAHNGSAQLLRQLRGQLGPPGSR-NH2 | 41.7 |  |  |  |  | 
2 | COc1ccc(-c2cccc(C(=O)N(C)C)c2)cc1S(=O)(=O)Nc1ccc2c(c1)C(N(C)C(=O)C1CCCCC1)CCC2 (stereo not given) |  | 837 nM | > 10000 nM | 44.3% |  | 
3 | COC(=O)N1CCC[C@H](NS(C)(=O)=O)[C@@H]1CO[C@H]1CC[C@@H](c2ccccc2)CC1 [DANAVOREXTON] |  |  | > 30000 nM |  |  | 
4 | COc1ccc(-c2cccc(C(=O)N(C)C)c2)cc1S(=O)(=O)Nc1ccc2c(c1)C(N(C)C(=O)c1ccccc1)CCC2 (stereo not given) |  | 618 nM | > 10000 nM |  | 8.61% | 
5 | CCCCC(=O)N(C)C1CCCc2ccc(NS(=O)(=O)c3cc(-c4cccc(C(=O)N(C)C)c4)ccc3OC)cc21 (stereo not given) | 2.18 | 1920 nM | 4180 nM |  |  | 
6 | COc1cccc(CC(=O)N(C)[C@H]2CCCc3ccc(NS(=O)(=O)c4cc(-c5cccc(C(=O)N(C)C)c5)ccc4OC)cc32)c1 | 461 | 2.69 nM | 1240 nM |  |  | 
7 | CCCN(C(=O)Cc1cccc(OC)c1)C1CCCc2ccc(NS(=O)(=O)c3cc(-c4cccc(C(=O)N(C)C)c4)ccc3OC)cc21 (stereo not given) | 89.6 | 43.7 nM | 3920 nM |  |  | 
8 | COc1cccc(CC(=O)OC2CCCc3ccc(NS(=O)(=O)c4cc(-c5cccc(C(=O)N(C)C)c5)ccc4OC)cc32)c1 (stereo not given) | 14 | 413 nM | 5780 nM |  |  | 
9 | COc1cccc(CC(=O)N(CC2CC2)C2CCCc3ccc(NS(=O)(=O)c4cc(-c5cccc(C(=O)N(C)C)c5)ccc4OC)cc32)c1 (stereo not given) |  | 78.1 nM | > 10000 nM |  | 18.7% | 
10 | COc1cccc(CC(=O)N(C)c2cccc3c2CC(NS(=O)(=O)c2cc(-c4cccc(C(=O)N(C)C)c4)ccc2OC)CC3)c1 (stereo not given) |  | > 10000 nM | 5490 nM |  |  | 39.9%
11 | COc1ccc(-c2cccc(C(=O)N(C)C)c2)cc1S(=O)(=O)Nc1ccc2c(c1)C(N(C)C(=O)Nc1ccccc1)CCC2 (stereo not given) |  |  | 3250 nM |  |  | 

Second part, the compound after the results:

Row | Ratio EC50 [1] | EC50 [2] | EC50 [3] | Emax ([4]; filed as agonist) | Emax [4] | Emax [5] | Compound
12 | 12.5 | 57 nM | 713 nM |  |  |  | COc1ccc(-c2cccc(C(=O)N(C)C)c2)cc1S(=O)(=O)Nc1ccc2c(c1)C(N(C)C(=O)Cc1cccc(O)c1)CCC2 (stereo not given)
13 | 1.79 | 224 nM | 402 nM |  |  |  | COc1cccc(CC(=O)N(C)c2cccc3ccc(NS(=O)(=O)c4cc(-c5cccc(C(=O)N(C)C)c5)ccc4OC)cc23)c1
14 | 87.8 | 3.27 nM | 287 nM |  |  |  | COc1ccc(CN(C)C2CCc3ccc(NS(=O)(=O)c4cc(-c5cccc(C(=O)N(C)C)c5)ccc4OC)cc32)cc1 (stereo not given)
15 | 20.3 | 1.51 nM | 30.7 nM |  |  |  | COc1cccc(CC(=O)N(C)C2CCCc3ccc(NS(=O)(=O)c4cc(-c5cccc(C(=O)N(C)C)c5)ccc4OC)cc32)c1 (racemic)
16 | 23.3 | 0.579 nM | 13.5 nM |  |  |  | COc1cccc(CC(=O)N(C)[C@@H]2CCCc3ccc(NS(=O)(=O)c4cc(-c5cccc(C(=O)N(C)C)c5)ccc4OC)cc32)c1
17 | 2.95 | 126 nM | 372 nM |  |  |  | COc1ccc(-c2cccc(C(=O)N(C)C)c2)cc1S(=O)(=O)Nc1ccc2c(c1)C(N(C)C(=O)CCc1ccccc1)CCC2 (stereo not given)
18 | 25.7 | 3.59 nM | 92.2 nM |  |  |  | COc1ccccc1CC(=O)N(C)C1CCCc2ccc(NS(=O)(=O)c3cc(-c4cccc(C(=O)N(C)C)c4)ccc3OC)cc21 (stereo not given)
19 | 13.3 | 6.5 nM | 86.3 nM |  |  |  | COc1ccc(-c2cccc(C(=O)N(C)C)c2)cc1S(=O)(=O)Nc1ccc2c(c1)C(N(C)C(=O)Cc1cccc(F)c1)CCC2 (stereo not given)
20 | 25.8 | 2.14 nM | 55.3 nM |  |  |  | CCOc1cccc(CC(=O)N(C)C2CCCc3ccc(NS(=O)(=O)c4cc(-c5cccc(C(=O)N(C)C)c5)ccc4OC)cc32)c1 (stereo not given)
21 | 10.5 | 10.7 nM | 112 nM |  |  |  | COc1ccc(-c2cccc(C(=O)N(C)C)c2)cc1S(=O)(=O)Nc1ccc2c(c1)C(N(C)C(=O)Cc1ccccc1)CCC2 (stereo not given)
22 |  |  | 120 nM |  |  |  | COc1ccc(CC(=O)N(C)C2CCCc3ccc(NS(=O)(=O)c4cc(-c5cccc(C(=O)N(C)C)c5)ccc4OC)cc32)cc1 (stereo not given)
23 | 18.4 | 19.3 nM | 356 nM |  |  |  | CCN(C(=O)Cc1cccc(OC)c1)C1CCCc2ccc(NS(=O)(=O)c3cc(-c4cccc(C(=O)N(C)C)c4)ccc3OC)cc21 (stereo not given)
24 | 7.83 | 151 nM | 1180 nM |  |  |  | COc1ccc(-c2cccc(C(=O)N(C)C)c2)cc1S(=O)(=O)Nc1ccc2c(c1)C(N(C)C(=O)Cc1cccnc1)CCC2 (stereo not given)
25 | 8.61 | 26.6 nM | 229 nM |  |  |  | COc1cccc(CC(=O)NC2CCCc3ccc(NS(=O)(=O)c4cc(-c5cccc(C(=O)N(C)C)c5)ccc4OC)cc32)c1 (stereo not given)
26 | 15.9 | 5.59 nM | 89 nM |  |  |  | COc1ccc(-c2cccc(C(=O)N(C)C)c2)cc1S(=O)(=O)Nc1ccc2c(c1)C(N(C)C(=O)Cc1cccc(N(C)C)c1)CCC2 (stereo not given)
